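Step 1: Grow cells in 96-well plates. Step 2: Expose to compound for 48 hours at 5 concentrations. Step 3: Interpolate endpoints linearly; if unreached, use highest concentration. At the GI50, growth is halved. At the TGI there is no net growth.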
Tests used:
Experiment in all cases: NCI anticancer screen, dose series, 48 h
[1] = system: COLO 205 colon
[2] = system: HCT-116 colon
[3] = system: HOP-62 NSCLC
[4] = system: HT29 colon
[5] = system: IGROV1 ovarian
[6] = system: K-562 leukemia
[7] = system: LOX IMVI melanoma
[8] = system: SF-268 CNS
[9] = system: UACC-62 melanoma
[10] = system: MDA-MB-435

Cc1c2ccnc(-c3ccccc3)c2cc2c1[nH]c1ccccc12
TGI [1]: 6.1 µM
TGI [2]: 4.61 µM
TGI [3]: 6.61 µM
TGI [4]: 8.14 µM
TGI [5]: 21.4 µM
TGI [6]: 5.38 µM
TGI [7]: 17.6 µM
TGI [8]: 32.9 µM
TGI [9]: 5.48 µM

O=C(CSCC(=O)N/N=C/c1cccc(OCc2ccccc2)c1)N/N=C/c1cccc(OCc2ccccc2)c1
GI50 [1]: 37.5 µM
TGI [1]: > 100 µM
TGI [2]: > 100 µM
TGI [3]: > 100 µM
TGI [4]: > 100 µM
TGI [5]: > 100 µM
TGI [6]: > 100 µM
TGI [7]: > 100 µM
TGI [10]: > 100 µM
TGI [8]: > 100 µM
TGI [9]: > 100 µM

O=C(O)c1ccccn1
TGI [1]: > 100 µM
TGI [2]: > 100 µM
TGI [3]: > 100 µM
TGI [4]: > 100 µM
TGI [5]: > 100 µM
TGI [6]: > 100 µM
TGI [10]: > 100 µM
TGI [8]: > 100 µM
TGI [9]: > 100 µM

CCOC(=O)c1c2c(c(O)c3ccccc3c(O)n(-c3ccc(C)cc3)c1C)C(=O)C=CC2=O
TGI [1]: 48.5 µM
TGI [2]: 38.3 µM
TGI [3]: 61.7 µM
TGI [4]: 41.1 µM
TGI [5]: > 100 µM
TGI [6]: 47.2 µM
TGI [7]: 38.8 µM
TGI [10]: 35.7 µM
TGI [8]: > 100 µM
TGI [9]: 71.7 µM

COc1ccc(-n2c3c(c4cc(O)ccc42)C(=O)c2ccccc2C3=O)cc1
TGI [1]: > 100 µM
TGI [2]: 1.25 µM
TGI [3]: 12.7 µM
TGI [4]: 18.6 µM
TGI [5]: 30.8 µM
TGI [6]: > 100 µM
TGI [7]: 58 µM
TGI [10]: > 100 µM
TGI [8]: 14.8 µM
TGI [9]: 25.6 µM

NCS(=O)(=O)O
TGI [1]: > 100 µM
TGI [2]: > 100 µM
TGI [3]: > 100 µM
TGI [4]: > 100 µM
TGI [5]: > 100 µM
TGI [6]: > 100 µM
TGI [7]: > 100 µM
TGI [10]: > 100 µM
TGI [8]: > 100 µM
TGI [9]: > 100 µM

COc1cc2c(cc1OC)C(Cl)C(c1ccc(Cl)cc1)=C2Cl (stereo unspecified)
TGI [1]: 32.2 µM
TGI [4]: 28.6 µM
TGI [5]: 48.3 µM
TGI [6]: 32.9 µM
TGI [7]: 25.5 µM
TGI [9]: 40.4 µM

C[C@@H]1CC[C@H]2C(COC/C=C/COCC3=C(C(F)(F)F)O[C@@H]4O[C@@]5(C)CC[C@H]6[C@H](C)CC[C@@H]3[C@@]46OO5)=C(C(F)(F)F)O[C@@H]3O[C@@]4(C)CC[C@@H]1[C@]32OO4
GI50 [1]: < 0.0174 µM
GI50 [2]: < 0.01 µM
TGI [2]: > 100 µM
TGI [3]: > 100 µM
GI50 [4]: 0.0169 µM
TGI [4]: > 100 µM
GI50 [5]: 1.27 µM
TGI [5]: 98.2 µM
GI50 [6]: < 0.0116 µM
TGI [6]: > 47 µM
GI50 [10]: < 0.012 µM
GI50 [8]: 0.0846 µM
TGI [8]: > 100 µM
GI50 [9]: 0.0781 µM
TGI [9]: > 100 µM

O=C(CC1(O)C(=O)Nc2ccc(Br)cc21)c1ccc(C(=O)NCC2CCC3(CC2)OOC2(CCCCC2)OO3)cc1 (stereo unspecified)
GI50 [1]: 3.74 µM
TGI [1]: 25.5 µM
GI50 [2]: 3.09 µM
TGI [2]: 30 µM
GI50 [3]: 11 µM
TGI [3]: 40.7 µM
GI50 [4]: 4.96 µM
TGI [4]: 23 µM
GI50 [5]: 1.52 µM
TGI [5]: 11.6 µM
GI50 [7]: 1.95 µM
TGI [7]: 29 µM
GI50 [8]: 6.16 µM
TGI [8]: 36.5 µM
GI50 [9]: 5.77 µM
TGI [9]: 29.2 µM

CN(C)c1ccc2nc3c(C(=O)O)cc(=O)c(O)c-3oc2c1
TGI [1]: 60 µM
TGI [2]: 80.1 µM
TGI [3]: > 100 µM
TGI [4]: > 100 µM
TGI [5]: > 100 µM
TGI [6]: 74.8 µM
TGI [7]: > 100 µM
TGI [10]: 54.9 µM
TGI [8]: > 100 µM
TGI [9]: 46 µM

COc1ccc(CNc2nc(NCc3ccc(OC)cc3)nc(NC(C)C)n2)cc1
TGI [1]: 33.9 µM
TGI [2]: 12.4 µM
TGI [3]: 37.5 µM
TGI [4]: > 100 µM
TGI [5]: > 100 µM
TGI [6]: > 100 µM
TGI [7]: 30.9 µM
TGI [10]: 11.2 µM
TGI [8]: 50 µM
TGI [9]: 31.1 µM

CN(C)c1ccc(C2CC(=O)C(C#N)=C(c3ccccc3)NN2C)cc1 (stereo unspecified)
TGI [2]: > 100 µM
TGI [3]: 62.5 µM
TGI [4]: 24.5 µM
TGI [7]: > 100 µM
TGI [8]: > 100 µM

COc1cccc(-c2cccc(SC)n2)n1
TGI [1]: 40.2 µM
TGI [2]: > 100 µM
TGI [3]: > 100 µM
TGI [4]: 93.8 µM
TGI [5]: > 100 µM
TGI [6]: > 100 µM
TGI [7]: > 100 µM
TGI [10]: 86.8 µM
TGI [9]: > 100 µM

CCOC(=O)C1=C(C)N(C)C(=S)NC1c1cccc(O)c1 (stereo unspecified)
TGI [1]: > 100 µM
TGI [2]: > 100 µM
TGI [3]: > 100 µM
TGI [4]: > 100 µM
TGI [5]: > 100 µM
TGI [6]: > 100 µM
TGI [7]: > 100 µM
TGI [10]: 34.9 µM
TGI [8]: > 100 µM
TGI [9]: > 100 µM

CC[C@H](Nc1nc(N)nc(N)c1Cl)c1nc2cccc(NCc3ccc(C(=O)NO)cc3)c2c(=O)n1-c1ccccc1
GI50 [1]: 2.24 µM
TGI [1]: 5.73 µM
GI50 [3]: 1.67 µM
TGI [3]: 4.04 µM
GI50 [4]: 2.01 µM
TGI [4]: 5.27 µM
GI50 [6]: 1.78 µM
TGI [6]: > 100 µM
GI50 [7]: 1.73 µM
TGI [7]: 3.17 µM
GI50 [10]: 1.7 µM
TGI [10]: 3.4 µM
GI50 [8]: 1.66 µM
TGI [8]: 3.69 µM
GI50 [9]: 1.41 µM
TGI [9]: 2.81 µM

— PubChem BioAssay (NCI)
